Measured values: ChEMBL document CHEMBL4814079, “Structure-Activity Relationship for the Picolinamide Antibacterials that Selectively Target Clostridioides difficile” (ACS Med Chem Lett, 2021)
≈ marks a conversion by molar mass, not a printed value.

Legend:
Clostridioides difficile = experiment: Antibacterial activity against Clostridium difficile ATCC 43255 assessed as reduction in bacterial growth measured after 48 hrs by CLSI based broth microdilution method; assay type: functional
HeLa [1] = experiment: Cytotoxicity against human HeLa cells assessed as reduction in cell viability incubated for 16 hrs by XTT assay; assay type: cell-based
Staphylococcus aureus = experiment: Antibacterial activity against […] Staphylococcus aureus ATCC 29213 assessed as reduction in bacterial growth measured after 48 hrs by CLSI based broth microdilution method; assay type: functional
[2] = Selectivity index, ratio of MIC of […] Staphylococcus aureus ATCC 29213 to MIC of Clostridium difficile ATCC 43255; assay type: functional
HeLa [3] = experiment: Cytotoxicity against human HeLa cells assessed as reduction in cell viability at 128 ug/ml incubated for 16 hrs by XTT assay; assay type: cell-based; details: dose 128 µg/ml
[4] = Plasma concentration in CD1 mouse at 20 mg/kg, po measured upto 8 hrs by LC-MS/MS analysis; assay type: ADME, organism-based; details: in vivo, BLD = below limit of detection
[5] = Drug excretion in CD1 mouse feces at 20 mg/kg, po measured upto 8 hrs by LC-MS/MS analysis; assay type: ADME, organism-based; details: in vivo
[6] = Ratio of drug excretion in CD-1 mouse feces to MIC for antibacterial activity against Clostridium difficile ATCC 43255; assay type: toxicity; details: in vivo
Corynebacterium = experiment: Antibacterial activity against gut Corynebacterium HM-784 assessed as reduction in bacterial growth measured after 48 hrs by CLSI based broth microdilution method; assay type: organism-based
[7] = Antibacterial activity against gut Limosilactobacillus-reuteri HM-102 assessed as reduction in bacterial growth measured after 48 hrs by CLSI based broth microdilution method
Bifidobacterium longum = experiment: Antibacterial activity against gut Bifidobacterium longum HM-846 assessed as reduction in bacterial growth measured after 48 hrs by CLSI based broth microdilution method; assay type: organism-based
Bacteroides fragilis = experiment: Antibacterial activity against gut Bacteroides fragilis HM-709 assessed as reduction in bacterial growth measured after 48 hrs by CLSI based broth microdilution method; assay type: organism-based; details: in vitro
Veillonella = experiment: Antibacterial activity against gut Veillonella sp HM-49 assessed as reduction in bacterial growth measured after 48 hrs by CLSI based broth microdilution method; assay type: organism-based; details: in vitro
Lactobacillus gasseri = experiment: Antibacterial activity against gut Lactobacillus gasseri HM-664 assessed as reduction in bacterial growth measured after 48 hrs by CLSI based broth microdilution method; assay type: organism-based; details: in vitro
Fusobacterium nucleatum = experiment: Antibacterial activity against gut Fusobacterium nucleatum HM-992 assessed as reduction in bacterial growth measured after 48 hrs by CLSI based broth microdilution method; assay type: organism-based; details: in vitro
Eubacterium sp. = experiment: Antibacterial activity against gut Eubacterium sp. HM-178 assessed as reduction in bacterial growth measured after 48 hrs by CLSI based broth microdilution method; assay type: organism-based
HeLa [8] = experiment: Cytotoxicity against human HeLa cells assessed as reduction in cell viability at 256 ug/ml incubated for 16 hrs by XTT assay; assay type: cell-based; details: dose 256 µg/ml
HeLa [9] = experiment: Cytotoxicity against human HeLa cells assessed as reduction in cell viability at 64 ug/ml incubated for 16 hrs by XTT assay; assay type: cell-based; details: dose 64 µg/ml

O=C(Nc1ncco1)c1cc(-c2cc(F)cc(F)c2)ccn1
MIC (Clostridioides difficile): 1 mg/L (≈ 3.32 µM) | IC50 (HeLa [1]): 40.1 mg/L (≈ 133 µM) | MIC (Staphylococcus aureus): 64 mg/L (≈ 212 µM) | Ratio [2]: 64

O=C([O-])c1ccc2oc(NC(=O)c3cc(Oc4ccc(F)c(F)c4)ccn3)nc2c1.[Na+]
MIC (Clostridioides difficile): 0.5 mg/L | Activity (HeLa [3]): Non-Toxic | Cp [4]: Bld | Drug excretion [5]: 3.7 µg/g | MIC (Staphylococcus aureus): 64 mg/L | Ratio [6]: 7.4

O=C(Nc1ncco1)c1cc(Oc2ccc(F)c(F)c2)ccn1
MIC (Clostridioides difficile): 1 mg/L (≈ 3.15 µM) | MIC (Staphylococcus aureus): 64 mg/L (≈ 202 µM) | Ratio [2]: 64

COc1ccc(Oc2ccnc(C(=O)Nc3ncco3)c2)cc1
MIC (Clostridioides difficile): 1 mg/L (≈ 3.21 µM) | MIC (Staphylococcus aureus): ≥ 256 mg/L | Ratio [2]: > 256

CCc1c(Cl)c(O)c(Cl)c(O)c1C(=O)O[C@H]1[C@H](O)[C@H](OC)[C@H](OC/C2=C\C=C\C[C@H](O)/C(C)=C/[C@H](CC)[C@@H](O[C@@H]3OC(C)(C)[C@@H](OC(=O)C(C)C)[C@H](O)[C@@H]3O)/C(C)=C/C(C)=C/C[C@@H]([C@@H](C)O)OC2=O)O[C@@H]1C [FIDAXOMICIN]
MIC (Corynebacterium): < 0.0625 mg/L | MIC (Clostridioides difficile): 0.0625 mg/L (≈ 0.0591 µM) | MIC [7]: > 32 mg/L | MIC (Bifidobacterium longum): < 0.01 mg/L | MIC (Bacteroides fragilis): > 32 mg/L | MIC (Veillonella): 8 mg/L (≈ 7.56 µM) | MIC (Lactobacillus gasseri): 2 mg/L (≈ 1.89 µM) | MIC (Fusobacterium nucleatum): < 0.0625 mg/L | MIC (Eubacterium sp.): 16 mg/L (≈ 15.1 µM)

O=C(Nc1ncco1)c1cc(-c2ccc(OC(F)(F)F)cc2)ccn1
MIC (Clostridioides difficile): 0.25 mg/L (≈ 0.716 µM) | MIC (Staphylococcus aureus): 125 mg/L (≈ 358 µM) | Ratio [2]: 512

O=C(Nc1ncco1)c1cc(-c2ccc(Cl)c(F)c2)ccn1
MIC (Clostridioides difficile): 0.25 mg/L (≈ 0.787 µM) | MIC (Staphylococcus aureus): 128 mg/L (≈ 403 µM) | Activity (HeLa [8]): Non-Toxic | Ratio [2]: 512

O=C(O)c1ccc2oc(NC(=O)c3cc(-c4ccc(OC(F)(F)F)cc4)ccn3)nc2c1
MIC (Clostridioides difficile): 0.03 mg/L (≈ 0.0677 µM) | IC50 (HeLa [1]): 79.9 mg/L (≈ 180 µM) | MIC (Staphylococcus aureus): 8 mg/L (≈ 18 µM) | Ratio [2]: 256

O=C(Nc1ncco1)c1ccnc(Oc2ccc(Cl)c(Cl)c2)c1
IC50 (HeLa [1]): 37 mg/L (≈ 106 µM)

O=C(Nc1ncco1)c1cc(-c2cccc(F)c2)ccn1
MIC (Clostridioides difficile): 0.5 mg/L (≈ 1.77 µM) | Activity (HeLa [9]): Non-Toxic | MIC (Staphylococcus aureus): 64 mg/L (≈ 226 µM) | Ratio [2]: 128

O=C(O)c1ccc2oc(NC(=O)c3cc(-c4cccc(OC(F)(F)F)c4)ccn3)nc2c1
MIC (Clostridioides difficile): 0.03 mg/L (≈ 0.0677 µM) | IC50 (HeLa [1]): 124 mg/L (≈ 279 µM) | MIC (Staphylococcus aureus): 16 mg/L (≈ 36.1 µM) | Ratio [2]: 512

O=C(Nc1ncco1)c1cc(Oc2ccc(OC(F)(F)F)cc2)ccn1
MIC (Clostridioides difficile): 1 mg/L (≈ 2.74 µM) | MIC (Staphylococcus aureus): 128 mg/L (≈ 350 µM) | Ratio [2]: 128

O=C(Nc1ncco1)c1cc(-c2ccc(F)c(Cl)c2)ccn1
MIC (Clostridioides difficile): 0.25 mg/L (≈ 0.787 µM) | MIC (Staphylococcus aureus): 128 mg/L (≈ 403 µM) | Ratio [2]: 512

O=C([O-])c1ccc2oc(NC(=O)c3cc(Oc4cccc(OC(F)(F)F)c4)ccn3)nc2c1.[Na+]
MIC (Corynebacterium): 8 mg/L | MIC (Clostridioides difficile): 0.125 mg/L | MIC [7]: 4 mg/L | MIC (Bifidobacterium longum): 16 mg/L | MIC (Bacteroides fragilis): 4 mg/L | MIC (Veillonella): 16 mg/L | MIC (Lactobacillus gasseri): > 16 mg/L | Cp [4]: Bld | MIC (Fusobacterium nucleatum): 4 mg/L | MIC (Eubacterium sp.): 16 mg/L | Drug excretion [5]: 13 µg/g | MIC (Staphylococcus aureus): 16 mg/L | Ratio [6]: 108 | Ratio [2]: 128

Cc1ncc([N+](=O)[O-])n1CCO [METRONIDAZOLE]
MIC (Corynebacterium): > 32 mg/L | MIC [7]: > 32 mg/L | MIC (Bifidobacterium longum): 1 mg/L (≈ 5.84 µM) | MIC (Bacteroides fragilis): 1 mg/L (≈ 5.84 µM) | MIC (Veillonella): 2 mg/L (≈ 11.7 µM) | MIC (Lactobacillus gasseri): > 32 mg/L | MIC (Fusobacterium nucleatum): 2 mg/L (≈ 11.7 µM) | MIC (Eubacterium sp.): 1 mg/L (≈ 5.84 µM)
